Assay results from patent US4396614A, “Novel steroids” (Uclaf; Roussel, priority 1980, dated 1983).

How the values were obtained:
[1] = biological target: T1, androgen hormonal receptor of prostate cytosol (Rattus norvegicus, UniProt P15207); experiment: Androgenic activity: hormonal receptor method of Raynaud, displacement of tritiated 17α-methyl-Δ^4,9,11-estratriene-17β-ol-3-one (Product R) in prostate cytosol; assay type: binding; conditions: prostate cytosol of castrated male rats, incubated at 0° C. for 2 hours
T1 construct: The homogenate was centrifuged at 105,000 g per hour and the surnageant or cytosol was adjusted to a dilution of 1/5; from tissue; host or cells: prostate cytosol of male rats castrated 24 hours earlier
T1 sequence (P15207 1-902): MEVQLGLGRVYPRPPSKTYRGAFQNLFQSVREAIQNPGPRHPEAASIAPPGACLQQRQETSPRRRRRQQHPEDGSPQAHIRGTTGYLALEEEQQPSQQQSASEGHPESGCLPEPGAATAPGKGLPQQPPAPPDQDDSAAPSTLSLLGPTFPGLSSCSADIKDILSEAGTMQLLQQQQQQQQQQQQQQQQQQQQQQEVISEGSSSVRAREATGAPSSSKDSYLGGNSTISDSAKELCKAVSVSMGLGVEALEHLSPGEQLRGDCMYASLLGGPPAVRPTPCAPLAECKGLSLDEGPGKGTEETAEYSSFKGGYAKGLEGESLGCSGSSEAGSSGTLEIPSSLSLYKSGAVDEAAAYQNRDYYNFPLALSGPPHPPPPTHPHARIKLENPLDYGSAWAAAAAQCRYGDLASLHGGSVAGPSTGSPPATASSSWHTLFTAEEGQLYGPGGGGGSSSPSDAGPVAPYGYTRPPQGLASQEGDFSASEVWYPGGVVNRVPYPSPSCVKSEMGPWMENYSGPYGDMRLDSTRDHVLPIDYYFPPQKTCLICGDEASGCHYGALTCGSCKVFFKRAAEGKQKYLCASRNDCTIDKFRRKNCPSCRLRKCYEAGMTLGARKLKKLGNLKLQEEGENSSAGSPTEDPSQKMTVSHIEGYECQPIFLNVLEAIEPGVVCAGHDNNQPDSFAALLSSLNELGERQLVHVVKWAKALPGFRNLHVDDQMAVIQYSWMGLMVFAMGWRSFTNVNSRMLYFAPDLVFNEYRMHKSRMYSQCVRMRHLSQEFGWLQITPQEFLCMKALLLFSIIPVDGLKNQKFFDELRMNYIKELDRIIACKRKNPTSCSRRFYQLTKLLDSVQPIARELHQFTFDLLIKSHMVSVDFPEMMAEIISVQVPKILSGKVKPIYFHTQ
Protocol: The latter was homogenized in a buffered solution of 10 mm of tromethamine, 0.25 M of saccharose and a pH of 7.4 with hydrochloric acid. The homogenate was centrifuged at 105,000 g per hour and the surnageant or cytosol was adjusted to a dilution of 1/5 (weight/volume). The resulting solution was incubated at 0° C. for 2 hours in tubes with the same volume of cytosol with a fixed concentration of tritiated 17α-methyl-Δ^4,9,11 - estratriene-17β-ol-3-one (designated as tritiated Product R) in the presence or not of an increasing concentration of radioinactive 17α-methyl-Δ^4,9,11 -estratriene-17β-ol-3-one (designated as cold product R) or the test product. […] The plots were the curves representing the percentage of tritiated product R as a function of the log of the concentration of cold product R or the test product of the I50 straight line parallel to the axis of the abcisses and ordinates.
B/T=(B/T Max.+B/T Min.)/2
B/T max. is the percentage of tied tritiated product R when the product is not added and B/T min, is the percentage of tied tritiated product R when the maximum amount of cold product R is added.

aldosterone monoacetate = experiment: Antialdosterone activity: diuresis test in surrenalectomized rats (Kagawa/Marcus); assay type: in vivo, rat; conditions: surrenalectomized male Sprague Dawley rats, 4 hours urine collection
Protocol: The study was effected by a test inspired by Kagawa [P.S.E.B.M., Vol. 99 (1958), p. 705] and Marcus [Endocrinology, Vol. 50 (1952), p. 286] in which male rats of the Sprague Dawley SPF 1FFA CREDO strain weighing 180 g were surrenalectomized 7 days before diuresis while anestesized with Imalgene (Ketamine) intraperitoneally at a dose of 100 mg/kg. After the operation and from the night before the start of the test, the rats received physiological serum as drinking water and the animals were held without food or drink for 17 hours before diuresis and the physiological serum was replaced by water containing 5% glucose. The test products were orally administered before placing them in a cage and at the moment of diuresis, the animals received intraperitoneally a hydrosaline surcharge of 5 ml per rat of 9.permill. physiological serum and subcutaneously 1 μg/kg of aldosterone monoacetate in 2.5% alcoholic solution.
The rats were placed in pairs in a diuresis cage without food or drink for 4 hours and at this time, a forced emission was induced by pressure against the bladder and the volume of recovered urine was measured. After careful rinsing of the cages and the glass, the urine volume was adjusted to 50 ml and this solution was treated to determine the amount of potassium and sodium in the urine by flame photometry in an autoanalyszer. […] 125-132]. […]

With `CCC[C@@H]1CC2=CC(=O)C=C[C@]2(C)[C@H]2CC[C@@]3(C)[C@@H](CC[C@@]3(O)CCC(=O)O)[C@H]12` [Example 10, Potassium 7α-propyl-17α-Δ^1,4-pregnadiene-17β-ol-3-one-21-carboxylate] the “ARL (relative affinity = 100×(CT/CX))” value [1] was 0.02, the “percentage of inhibition of the activity of 1 μg/kg of aldosterone monoacetate (log of ratio sodium concentration/potassium concentration in urine)” value (aldosterone monoacetate; 0.4 mg/kg orally) was 30% and the “percentage of inhibition of the activity of 1 μg/kg of aldosterone monoacetate (log of ratio sodium concentration/potassium concentration in urine)” value (aldosterone monoacetate; 2 mg/kg orally) was 80%.
